The values below come from patent US8455688B2, “HDAC inhibitors” (Lixte Biotechnology, Inc., priority 2007, dated 2013).

“Also recorded” adds a separate entry of the source. Where only a bound is given, the exact number is not on record here.

For one data set, the system named is normal mouse brain cells. The experiment in a line: Viability of normal mouse brain cells.
A further data set deals with NCI-H69 Lung small cell. The experiment in a line: CellTiter-Glo proliferation assay, NCI-H69. It is filed as cell-based. To be noted: Homo sapiens, 72 hr incubation, read-out: IC50 (50% inhibition of proliferation). The text has this:
(§1) MDA-MB-231, HT-29, NCI-H460, NCI-H522, NCI-H69, GXF-209, HepG2, OVAR-3, PANC-1, DU-145, LNCAP, HL-60, K-562, and MOLT-4 cell lines were either obtained from the American Type Culture Collection (ATCC; Manassas, Va.), or from the National Cancer Institute (NCl; Frederick, Md.). RPM-1640 media, L-glutamine dipeptide (HyQ SG-200), and HEPES were obtained from Hyclone (Logan, Utah). Fetal bovine serum (FBS) was obtained from Sigma-Aldrich, (St. Louis, Mo.). DMSO was purchases from Fisher Chemicals (Fair Lawn, N.J.). The CellTiter-Glo Luminescent Cell Viability Assay reagent was obtained from Promega Corporation (Madison, Wis.). All tissue culture plasticware was obtained from Corning Incorporated (New York, N.Y.). Compound 100 and Compound 102 were provided by Lixte Biotechnology Holdings, Inc. (East Setauket, N.Y.). All cell lines were routinely cultured twice weekly in RPMI-1640 medium supplemented with 2 mM L-glutamine dipeptide, 10 mM HEPES, and 10% FBS. The adherent cell lines MDA-MB-231, HT-29, NCI-H460, NCI-H522, GXF-209, HepG2, OVAR-3, PANC-1, DU-145, and LNCAP cells were each seeded into two 96-well plates at 2,500 cells per well in a total volume of 50 uL and incubated in a 37 C humidified 5% CO2 cell culture incubator overnight. […] Luminescence was then recorded using the PerkinElmer Microbeta scintillation and luminescence counter (Trilux).

Data set [1] deals with medulloblastoma cell line DAOY. The experiment in a line: Inhibition of growth of medulloblastoma cell line DAOY. Format: cell-based.
The subject of data set [2] is MOLT-4 Leukemia acute lympho. The experiment in a line: CellTiter-Glo proliferation assay, MOLT-4. Format: cell-based. As to conditions: Homo sapiens, 72 hr incubation, read-out: IC50 (50% inhibition of proliferation).
From the text: as §1

For a further data set, the system named is DU-145 Prostate. The experiment in a line: CellTiter-Glo proliferation assay, DU-145. It is filed as cell-based. To be noted: Homo sapiens, 72 hr incubation, read-out: IC50 (50% inhibition of proliferation).
From the text: as §1

A further data set concerns NCI-H460 Lung large cell. The experiment in a line: CellTiter-Glo proliferation assay, NCI-H460. It is filed as cell-based. To be noted: Homo sapiens, 72 hr incubation, read-out: IC50 (50% inhibition of proliferation).
From the text: as §1

The next data set concerns SHSY-5Y xenografts. Briefly: Inhibition of SHSY-5Y xenografts. To be noted: in vivo.
The subject of data set [3] is HL-60 Leukemia promyelocytic. Briefly: CellTiter-Glo proliferation assay, HL-60. It is filed as cell-based. To be noted: Homo sapiens, 72 hr incubation, estimated from the data, no curve fit possible, read-out: IC50 (50% inhibition of proliferation).
From the text: as §1

Another data set concerns NCI-H522 Lung adenoca. Briefly: CellTiter-Glo proliferation assay, NCI-H522. Format: cell-based. To be noted: Homo sapiens, 72 hr incubation, read-out: IC50 (50% inhibition of proliferation).
From the text: as §1

The subject of data set [4] is K562 Leukemia chronic myelo. Briefly: CellTiter-Glo proliferation assay, K562. It is filed as cell-based. To be noted: Homo sapiens, 72 hr incubation, read-out: IC50 (50% inhibition of proliferation).
From the text: as §1

Another data set has as its system OVCAR-3 Ovary adenoca. Briefly: CellTiter-Glo proliferation assay, OVCAR-3. Format: cell-based. As to conditions: Homo sapiens, 72 hr incubation, read-out: IC50 (50% inhibition of proliferation).
From the text: as §1

Another data set has as its system HepG2 Hepatoma. The experiment in a line: CellTiter-Glo proliferation assay, HepG2. Format: cell-based. To be noted: Homo sapiens, 72 hr incubation, read-out: IC50 (50% inhibition of proliferation).
From the text: as §1

Another data set relates to PANC-1 Pancreas. Briefly: CellTiter-Glo proliferation assay, PANC-1. Format: cell-based. To be noted: Homo sapiens, 72 hr incubation, read-out: IC50 (50% inhibition of proliferation).
From the text: as §1

The subject of the next data set is LNCAP Prostate. Briefly: CellTiter-Glo proliferation assay, LNCAP. Format: cell-based. As to conditions: Homo sapiens, 72 hr incubation, read-out: IC50 (50% inhibition of proliferation).
From the text: as §1

The next data set has as its system HT-29 Colon. Briefly: CellTiter-Glo proliferation assay, HT-29. It is filed as cell-based. As to conditions: Homo sapiens, 72 hr incubation, read-out: IC50 (50% inhibition of proliferation).
From the text: as §1

The test system of a further data set is GXF-209 Stomach. The experiment in a line: CellTiter-Glo proliferation assay, GXF-209. It is filed as cell-based. To be noted: Homo sapiens, 72 hr incubation, read-out: IC50 (50% inhibition of proliferation).
From the text: as §1

The test system of a further data set is MDA-MB-231 Breast. The experiment in a line: CellTiter-Glo proliferation assay, MDA-MB-231. Format: cell-based. As to conditions: Homo sapiens, 72 hr incubation, read-out: IC50 (50% inhibition of proliferation).
From the text: as §1

A further data set deals with human cancer cell lines. The experiment in a line: Proliferation of multiple human cancer cell lines (panel summary). Format: cell-based. To be noted: panel of Table 2.
From the text: as §1

Turning to `O=C(CCCCCNC(=O)c1ccccc1S)Nc1cccnc1` [Compound 205, 2-Mercapto-N-[5-(pyridin-3-ylcarbamoyl)pentyl]benzamide], in the data set with normal mouse brain cells, the “viability of normal mouse brain cells compared to control” value is given as “high viability”. The IC50 with NCI-H69 Lung small cell was 16.1 µM; in data set [2] it was 26.3 µM; in the data set with DU-145 Prostate it was 50.2 µM; in the data set on NCI-H460 Lung large cell, over 100 µM; in data set [3], about 60 µM; in the data set on NCI-H522 Lung adenoca, 1.8 µM. Further, the IC50 was 58.3 µM in [4]; 18.7 µM in the data set with OVCAR-3 Ovary adenoca; 53.1 µM in the data set on HepG2 Hepatoma; 11.9 µM in the data set on PANC-1 Pancreas; 6.2 µM in the data set with LNCAP Prostate; 47.6 µM in the data set with HT-29 Colon. Moreover, the IC50 in the data set on GXF-209 Stomach was 22 µM; with MDA-MB-231 Breast, 24.8 µM. In [1], the “activity against medulloblastoma cell line DAOY” value is given as “active”. For the same molecule, in the data set with SHSY-5Y xenografts, the “activity against the growth of SHSY-5Y xenografts” value is on record as “shows activity”. For the same molecule, the “activity against human cancer cell lines” value with human cancer cell lines was “low uM range; also recorded: active against multiple human cancer cell lines at low micromolar concentrations”. Also, the “cancer types against which most active” value in the data set on human cancer cell lines is “most active against lung adenocarcinoma, stomach cancer, pancreatic cancer, and breast cancer”.
Take `CN(C)c1ccc(NC(=O)CCCCCNC(=O)c2ccccc2S)cc1` [Compound 206, 2-Mercapto-N-[5-(4-dimethylamino-3-yl-carbamoyl)pentyl]benzamide]: the melting point fell in the range of 108 to 110 °C.
